Source: US5681816A, “Method of inducing temporary paralysis of the gastrointestinal tract during medical procedure” (priority 1994, dated 1997)
Read-outs that look alike come from different tables or passages of the source.

Tests used:
[1] = for blood pressure and pulse: first patient
Procedure: During the period of observation, vital signs (blood pressure and pulse) and symptoms were continuously recorded. The protocol was such that if the blood pressure dropped by more than 20 mm Hg systolic or diastolic or the pulse increased by more than 30 beats per minute for 2 minutes, intravenous saline was to be administered and the study terminated.

[2] = in vivo; cited from earlier work
[3] = tested on: rat and guinea pig isolated midcolon sections; details: cited from earlier work
isolated human ileum = details: all frequencies tested; cited from earlier work
gastroduodenal motility = details: cited from earlier work
[4] = in vivo; cited from earlier work; remark: listed apart in the source
opossum duodenum = details: cited from earlier work
[5] = 1 mg intravenously followed by 2 mg IV over 2 hours

CC[C@H](C)[C@H](NC(=O)[C@H](CO)NC(=O)[C@H](CC(N)=O)NC(=O)[C@H](CC(C)C)NC(=O)[C@H](Cc1ccc(O)cc1)NC(=O)[C@H](CCCCN)NC(=O)[C@H](CCCCN)NC(=O)[C@@H](NC(=O)[C@H](C)NC(=O)[C@H](CCSC)NC(=O)[C@H](CCC(N)=O)NC(=O)[C@H](CCCCN)NC(=O)[C@H](CCCN=C(N)N)NC(=O)[C@H](CC(C)C)NC(=O)[C@H](CCCN=C(N)N)NC(=O)[C@@H](NC(=O)[C@H](Cc1ccc(O)cc1)NC(=O)[C@H](CC(N)=O)NC(=O)[C@H](CC(=O)O)NC(=O)[C@@H](NC(=O)[C@H](Cc1ccccc1)NC(=O)[C@@H](NC(=O)[C@H](C)NC(=O)[C@H](CC(=O)O)NC(=O)[C@H](CO)NC(=O)[C@@H](N)Cc1c[nH]cn1)C(C)C)[C@@H](C)O)[C@@H](C)O)C(C)C)C(=O)N[C@@H](CC(C)C)C(=O)N[C@@H](CC(N)=O)C(N)=O [VIP, vasoactive intestinal peptide]
blood pressure and pulse ([1]; 5 ng VIP per kg): slight decrease in systolic pressure and increase in pulse
blood pressure and pulse ([1]; higher dose level (20 ng/kg)): these effects on blood pressure and pulse were not seen
blood pressure or pulse ([1]; second patient, any of the dosages tested): no significant change
effect on blood pressure ([1]; summary statement): without a significant effect
blood pressure or pulse ([1]; third patient, any dose): no significant change
adverse reactions such as nausea or vomiting ([1]; three patients): None of the three patients studied experienced any adverse reactions

CN1[C@@H]2CC[C@H]1C[C@@H](OC(=O)C(CO)c1ccccc1)C2 (stereo partly drawn) [atropine]
beneficial effects during endoscopies (patient tolerance, facilitation of endoscopy) [2]: failed to demonstrate any beneficial effects
ascending contractions ([3]; all grades of stretch): strongly inhibits
descending relaxation [3]: no effect
response to electrical field stimulation (isolated human ileum): primary relaxation

glucagon
cycle length and time between contractile activity in the duodenum (gastroduodenal motility; [5]): significantly increased
mean pressure period (gastroduodenal motility; [5]): decreased
contractions in the antrum (gastroduodenal motility; doses as high as 2 mg): does not reduce contractions
colonoscopic evaluation (gastroduodenal motility; in vivo): does not facilitate
gastroduodenal motility (gastroduodenal motility; in vivo): variable reduction
minimally effective dose for reduction in gastroduodenal motility (gastroduodenal motility; in vivo): 0.5 mg
dose at which nausea and vomiting can appear [4]: 1 mg
effect on opossum duodenum (opossum duodenum): stimulated relaxation
